Earlier results in PMC9516332 (Frontiers in Oncology, 2022).
Like-named read-outs stand apart in the source and are kept apart here.

Legend:
[1] = target: panel of 255 wild-type kinases (Homo sapiens, UniProt P17252); conditions: kinase PKCα, 1 µmol/L single concentration, cited from earlier work
[2] = target: panel of 255 wild-type kinases (Homo sapiens, UniProt Q06187); conditions: BTK kinase assay, 1 µmol/L single concentration, cited from earlier work
[3] = target: panel of 255 wild-type kinases (Homo sapiens, UniProt P07948); conditions: kinase LYNa, 1 µmol/L single concentration, cited from earlier work
[4] = target: T1, panel of 255 wild-type kinases (Homo sapiens, UniProt Q06418); conditions: kinase TYRO3; 1 µmol/L single concentration; ref DOI: 10.1158/1535-7163.MCT-18-0877; cited from earlier work
T1 sequence (Q06418 41-890): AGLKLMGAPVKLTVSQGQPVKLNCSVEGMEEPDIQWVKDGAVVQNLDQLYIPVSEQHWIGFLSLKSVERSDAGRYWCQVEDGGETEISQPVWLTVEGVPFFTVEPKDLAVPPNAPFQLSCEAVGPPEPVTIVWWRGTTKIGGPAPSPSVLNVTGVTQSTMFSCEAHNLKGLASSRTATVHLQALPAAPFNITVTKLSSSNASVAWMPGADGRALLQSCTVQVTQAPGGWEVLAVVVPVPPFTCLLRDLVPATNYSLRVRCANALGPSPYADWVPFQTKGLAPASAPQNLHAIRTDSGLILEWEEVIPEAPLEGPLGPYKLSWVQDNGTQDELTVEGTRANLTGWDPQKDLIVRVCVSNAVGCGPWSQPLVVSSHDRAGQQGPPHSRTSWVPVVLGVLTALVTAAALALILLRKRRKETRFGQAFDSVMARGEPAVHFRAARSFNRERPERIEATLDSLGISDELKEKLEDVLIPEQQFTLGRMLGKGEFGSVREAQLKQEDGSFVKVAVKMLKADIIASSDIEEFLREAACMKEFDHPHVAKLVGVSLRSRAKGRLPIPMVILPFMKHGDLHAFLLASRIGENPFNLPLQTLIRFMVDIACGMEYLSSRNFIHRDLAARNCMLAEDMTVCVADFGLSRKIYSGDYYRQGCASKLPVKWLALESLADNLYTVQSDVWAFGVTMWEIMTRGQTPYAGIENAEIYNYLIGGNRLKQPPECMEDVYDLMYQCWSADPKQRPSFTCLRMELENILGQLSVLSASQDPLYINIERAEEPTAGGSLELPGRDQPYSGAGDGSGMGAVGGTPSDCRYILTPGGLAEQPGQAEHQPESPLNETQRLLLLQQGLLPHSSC

[5] = target: panel of 255 wild-type kinases (Homo sapiens, UniProt P06493); conditions: CDC2/CycB1 kinase assay, 1 µmol/L single concentration, cited from earlier work
[6] = target: panel of 255 wild-type kinases (Homo sapiens, UniProt Q96GD4); conditions: AurB kinase assay, 1 µmol/L single concentration, cited from earlier work
[7] = target: panel of 255 wild-type kinases (Homo sapiens, UniProt P49760); conditions: kinase CLK2, 1 µmol/L single concentration, cited from earlier work
[8] = target: panel of 255 wild-type kinases (Homo sapiens, UniProt P24941); conditions: 1 µmol/L single concentration, cited from earlier work; for %-inhibition CDK2/CycA2: CDK2/CycA2 kinase assay; for %-inhibition CDK2/CycE1: CDK2/CycE1 kinase assay
[9] = target: panel of 255 wild-type kinases (Homo sapiens, UniProt Q8N4C8); conditions: MINK, 1 µmol/L single concentration, cited from earlier work
[10] = target: panel of 255 wild-type kinases (Homo sapiens, UniProt Q13131); conditions: AMPKα1/β1/γ1 kinase assay, 1 µmol/L single concentration, cited from earlier work
[11] = target: panel of 255 wild-type kinases (Homo sapiens, UniProt Q9HCP0); conditions: kinase CK1γ1, 1 µmol/L single concentration, cited from earlier work
[12] = target: panel of 255 wild-type kinases (Homo sapiens, UniProt Q13153); conditions: PAK1, 1 µmol/L single concentration, cited from earlier work
[13] = target: panel of 255 wild-type kinases (Homo sapiens, UniProt Q04912); conditions: kinase RON, 1 µmol/L single concentration, cited from earlier work
[14] = ref DOI: 10.1158/1535-7163.MCT-18-0877
[15] = ref DOI: 10.1371/journal.pone.0092146

Compound	%-inhibition at 1 µmol/L, PKCα [1, 14]	%-inhibition BTK [2, 14]	%-inhibition at 1 µmol/L, LYNa [3, 14]	%-inhibition at 1 µmol/L, TYRO3 [4]	%-inhibition CDC2/CycB1 [5, 14]	%-inhibition AurB [6, 14]	%-inhibition at 1 µmol/L, CLK2 [7, 14]	%-inhibition CDK2/CycA2 [8, 14]	%-inhibition CDK2/CycE1 [8, 14]	%-inhibition, MINK [9, 14]	%-inhibition AMPKα1/β1/γ1 [10, 14]	%-inhibition at 1 µmol/L, CK1γ1 [11, 14]	%-inhibition, PAK1 [12, 14]	%-inhibition at 1 µmol/L, RON [13, 14]	other results
O=C(c1ccc(F)c(F)c1Nc1ccc(I)cc1F)N1CC(O)([C@@H]2CCCCN2)C1 [cobimetinib]	1.54%	4%	-1.81%	4.55%	-0.108%	-11%	0.147%	-8%	-8%	-2.67%	-0.873%	2.67%	3.21%	-9%	–
CO[C@@H]1[C@H](N(C)C(=O)c2ccccc2)C[C@H]2O[C@]1(C)n1c3ccccc3c3c4c(c5c6ccccc6n2c5c31)C(=O)NC4 [midostaurin]	92%	59%	90%	31%	22%	86%	–	52%	22%	88%	86%	-0.49%	–	22%	–
C=CC(=O)N1CCC[C@@H](n2nc(-c3ccc(Oc4ccccc4)cc3)c3c(N)ncnc32)C1 [ibrutinib]	0.745%	–	99%	12%	-1%	-1.1%	–	-12%	-8%	-6.41%	–	3.68%	6.57%	7%	–
C[C@@H](Oc1cc(-c2cnn(C3CCNCC3)c2)cnc1N)c1c(Cl)ccc(F)c1Cl [crizotinib]	–	–	–	–	–	–	–	–	–	–	–	–	–	–	%-inhibition at 1 µmol/L, PKCα [1, 15]: -8.47%; %-inhibition at 1 µmol/L, LYNa [3, 15]: 42%; %-inhibition CDC2/CycB1 [5, 15]: 19%; %-inhibition at 1 µmol/L, CLK2 [7, 15]: -6%; %-inhibition CDK2/CycA2 [8, 15]: 3%; %-inhibition CDK2/CycE1 [8, 15]: -14%; %-inhibition, MINK [9, 15]: 0%; %-inhibition AMPKα1/β1/γ1 [10, 15]: 16%; %-inhibition at 1 µmol/L, CK1γ1 [11, 15]: -3.52%; %-inhibition, PAK1 [12, 15]: -4%
Cc1cc(Nc2ncc(Cl)c(Nc3ccccc3S(=O)(=O)C(C)C)n2)c(OC(C)C)cc1C1CCNCC1 [ceritinib]	-9%	-1.88%	16%	7%	2.5%	8%	99%	-5.32%	-7.57%	1.46%	21%	19%	7.58%	9%	–
CC(C)(C)c1nc(-c2cccc(NS(=O)(=O)c3c(F)cccc3F)c2F)c(-c2ccnc(N)n2)s1 [dabrafenib]	–	–	–	–	–	–	–	–	–	–	–	–	–	–	%-inhibition BTK [2, 15]: 60%; %-inhibition AurB [6, 15]: 39%; %-inhibition at 1 µmol/L, CLK2 [7, 15]: 0.875%; %-inhibition, MINK [9, 15]: -0.772%; %-inhibition at 1 µmol/L, RON [13, 15]: 37%
C=CC(=O)Nc1cc(Nc2nccc(-c3cn(C)c4ccccc34)n2)c(OC)cc1N(C)CCN(C)C [osimertinib]	11%	84%	0.63%	8%	23%	-1.24%	38%	-6%	24%	21%	-5%	10%	-44%	5.69%	–
CC#CC(=O)N1CCC[C@H]1c1nc(-c2ccc(C(=O)Nc3ccccn3)cc2)c2c(N)nccn12 [acalabrutinib]	-17%	95%	2%	3%	-0.397%	11%	-7%	-5%	-5%	-1.13%	-5%	0.334%	-0.369%	8%	–
CCc1cc2c(cc1N1CCC(N3CCOCC3)CC1)C(C)(C)c1[nH]c3cc(C#N)ccc3c1C2=O [alectinib]	1.48%	4.39%	32%	30%	3.54%	9%	14%	5.68%	-2.55%	–	5%	-0.412%	-14%	10%	–
